In patent publication EP4635969A1, “NOVEL GLUCOCORTICOID, METHOD FOR PREPARING SAME, AND USE THEREOF” (Tianjin Pharmaceutical Biotechnology Co., Ltd., priority 2022, dated 2024):
Like-named read-outs stand apart in the source and are kept apart here.

Columns and labels:
[1] = system: inflammatory cytokines IL-6 and IL-12; experiment: Anti-asthma pharmacodynamic experiment: inflammatory cytokines in bronchoalveolar lavage fluid (ELISA); type: in vivo, female BALB/c mice; details: for Effects on inflammatory cytokines in bronchoalveolar lavage fluid of mice: compared with the model group
Description: Pharmacological Example 4: Pharmacodynamic Experiment on Anti-Asthma
The suspensions were stored at room temperature protected from light until use.
Positive control drug: Budesonide Suspension for Inhalation (specification: 2 mL: 1 mg; AstraZeneca Inc.; Lot No. : 327392) was diluted with injection-grade sodium chloride solution to 0.3 mg/ml as the positive control drug, and stored at room temperature protected from light until use.
Sixty female BALB/c mice underwent a one-week adaptive feeding period. Ten mice were randomly selected as the blank control group, while 50 mice were selected to establish asthma models.
From days 21 to 23 after sensitization, the mice in the model group and drug administration group were exposed to a 30-minute aerosol challenge with 5% OVA, while the mice in the blank control group were exposed to normal saline aerosol for the same duration.
At the end of airway hyperresponsiveness testing in mice, the mice were euthanized by cervical dislocation and fixed on a dissection tray. The abdomens and thoracic cavities of the mice were opened, and the skin and excess tissues of the neck were excised to expose the trachea of the mice. A small incision was made transversely on the trachea with a small scissors. A pre-treated 1 mL syringe needle was inserted and fastened with surgical thread. A 1 mL syringe was used to slowly inject 0.5 mL of pre-chilled phosphate-buffered saline (PBS) into the lungs of the mice, followed by slow aspiration. Each mouse was lavaged once, and a total of approximately 0.4 ml of lavage fluid was collected. The bronchoalveolar lavage fluid was centrifuged at 3000 rpm for 5 min. After centrifugation, the supernatant was aliquoted, and the levels of inflammatory cytokines IL-6 and IL-12 in the bronchoalveolar lavage fluid were determined using ELISA kits.
(§1) Statistical analysis was performed using SPSS software. Measurement data were expressed as mean ± standard deviation. One-way ANOVA was used for intergroup comparisons. For data with homogeneous variance, LSD test was used; for data with heterogeneous variance, Dunnett-t test was used. A value of P < 0.05 was considered statistically significant.

[2] = system: dry eye syndrome model New Zealand rabbits; experiment: Dry eye syndrome experiment (benzalkonium chloride model): corneal fluorescein sodium staining; type: in vivo, male New Zealand White rabbits; details: for inflammatory response on the ocular surface / ocular symptoms: compared with the model group
[3] = system: IL-17; experiment: Psoriasis experiment (imiquimod model): inflammatory cytokine in serum (ELISA); type: in vivo, mice; details: for level of IL-17 / inflammatory cytokines in psoriasis model mice: compared with the model group
[4] = system: inflammatory bowel disease model rats; experiment: Inflammatory bowel disease experiment (TNBS model): macroscopic injury score of the colon; type: in vivo; details: for inflammatory response on the intestinal surface / intestinal symptoms: compared with the model group; for Macroscopic injury score: colon, day 5 after TNBS, 2 mg/kg once a day (compounds intraintestinally, dexamethasone by gavage)
Description: Pharmacological Example 7: Pharmacodynamic Experiment on Inflammatory Bowel Disease in Rats
Test samples: The jet-milled compounds 23 and 34 were accurately weighed and prepared as 2 mg/mL clear solutions using anhydrous ethanol, respectively. The solutions were then diluted to 0.2 mg/mL with double-distilled water as the test samples, and stored at room temperature protected from light until use.
Animals in Groups 2 to 5 were subjected to trinitrobenzene sulfonic acid (TNBS) modeling as follows: A 5% TNBS aqueous solution was adjusted to 20 mg/mL TNBS (50% ethanol solution) with alcohol and water. After fasting for 24 h, the rats were anesthetized using an inhalation anesthesia machine. A silicone hose was inserted approximately 8 cm into the anus, and then TNBS was injected at a dose of 50 mg/kg. After injection, the rats were placed vertically for 1 min to prevent the backflow of TNBS solution. Then, the rats were placed into their cages for observation until the animals recovered.
Drug administration started one day before modeling, with one dose administered 1 hour before modeling and then once a day for 5 consecutive days. […] Table 14. Animal grouping and drug administration dosages
The experiment ended on day 5 after TNBS modeling. After isoflurane anesthesia, blood was collected from the hearts, and the rats were euthanized. The abdominal cavity was rapidly opened, and the macroscopic injury scoring of the colon in rats was performed based on the adhesion, obstruction, thickening of the colonic wall, colonic congestion, and necrosis in the colon area. After clearing the colonic contents, the colonic samples were longitudinally incised. The proximal 2/3 of the colon was excised, prepared into Swiss rolls, and stored in 4% neutral buffered formalin for histopathological analysis. Tissues were trimmed, dehydrated, paraffin-embedded, and sectioned (approximately 5 µm thickness), stained with hematoxylin-eosin (HE), and observed for pathological changes. Pathologists performed blind scoring of colonic lesions.
Quantitative indices were first subjected to Bartlett's test for homogeneity of variance. When the variance was homogeneous (P > 0.05), one-way analysis of variance (ANOVA) was used for a statistical test; if there was statistical significance (P ≤ 0.05), Dunnett's t-test (Dunnett method) was used to compare intergroup differences; if there was no statistical significance (P > 0.05), the statistical analysis was concluded. When the variance was heterogeneous (P ≤ 0.05), Kruskal-Wallis H rank-sum test (K-W method) was used for statistical analysis: if there was statistical significance (P ≤ 0.05), Mann-Whitney U test (M-W method) was further performed to compare intergroup differences; if there was no statistical significance (P > 0.05), the statistical analysis was concluded.

[5] = molecular target: T1, glucocorticoid receptor (GR) (Homo sapiens, UniProt P04150); experiment: Assay for agonist activity on glucocorticoid receptor (luciferase reporter, HEK293 cells transfected with pBIND-GR plasmid); type: cell-based
T1 sequence (P04150 521-777): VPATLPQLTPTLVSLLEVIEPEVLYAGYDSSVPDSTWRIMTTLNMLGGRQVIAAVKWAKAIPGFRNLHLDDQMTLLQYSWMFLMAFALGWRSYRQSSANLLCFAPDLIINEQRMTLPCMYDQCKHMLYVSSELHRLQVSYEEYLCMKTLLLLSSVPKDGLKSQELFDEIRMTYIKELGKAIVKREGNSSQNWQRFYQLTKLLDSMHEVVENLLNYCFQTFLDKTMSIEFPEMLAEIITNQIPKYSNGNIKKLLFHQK
Summary of the method: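 Readout is luciferase luminescence, with EC50 derived by nonlinear fitting. Compounds ran at 10 concentrations (4-fold steps, top 10 µM, duplicate wells) on pBIND-GR-transfected HEK293 cells in phenol red-free DMEM plus 5% charcoal-stripped serum; 0.1% DMSO served as blank.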

[6] = system: uveitis model rats; experiment: Anti-uveitis pharmacodynamic experiment (LPS model): ocular pathological score; type: in vivo, male SD rats; details: for ocular abnormalities / ocular pathological score: compared with the model group; for Ocular pathological score: 1 mg/mL, 40 µL/eye, 3 times a day for 2 days
Description: Pharmacodynamic Experiment on Anti-Uveitis
Positive control drug: Fluorometholone Eye Drops (specification: 5 mL/5 mg; Santen Pharmaceutical (CHINA) Co., Ltd.; Lot No. : J20180068) was used as the positive control drug and stored at room temperature protected from light until use.
Fifty male SD rats underwent a one-week adaptive feeding period. […] Groups 2 to 5 were used to establish rat uveitis models by single subcutaneous injection of 1 mg/kg LPS (Salmonella; Sigma; Lot No. 0000164114) into the plantar tissue of the hindpaw. Salmonella endotoxin was dissolved in normal saline to prepare an injection solution at a concentration of 2 mg/mL, which was injected subcutaneously at 1 mg/kg into the plantar tissue of one paw of the rats. Group 1 was injected with an equal volume of normal saline.
At the end of the experiment, photos of the rats' eyes were taken using a slit-lamp microscope, and the differences in ocular lesions of rats among groups were compared and analyzed.
as §1

[7] = Pharmacokinetic (PK) experiment in rats; type: in vivo, male SD rats; details: same experimental conditions
Description: Pharmacological Example 11. Pharmacokinetic (PK) Experiment in Rats
The solution was prepared before administration.
Animals: 6 male SD rats, SPF grade (Beijing Vital River Laboratory Animal Technology Co., Ltd.).
Animal grouping: The animals were weighed prior to administration, and the dosage was calculated based on body weight. The animals in the oral administration group were fasted overnight (10-14 hours) before administration, and food was reintroduced 4 hours post-administration. Table 23. Animal grouping and drug administration dosages for pharmacokinetic (PK) experiment in rats
Blood collection time points: Blood was collected from the jugular vein at 2 min, 5 min, 15 min, 30 min, 1 h, 2 h, 4 h, 8 h, and 24 h after administration. Approximately 0.25 mL of blood was collected for each sample, anticoagulated with heparin sodium, and then placed on ice immediately.
Plasma sample processing: Blood samples were placed on ice after collection and centrifuged to separate plasma within 1 hour (centrifugation conditions: 6000 rpm, 3 minutes, 2-8 °C ). Plasma samples were stored in a -80°C freezer before analysis.
Data processing: Pharmacokinetic parameters were calculated using Phoenix WinNonlin 8.2.0 based on the plasma drug concentration data at different time points.

[8] = system: dry eye syndrome model New Zealand rabbits; experiment: Dry eye syndrome experiment (benzalkonium chloride model): tear film break-up time; type: in vivo, male New Zealand White rabbits; details: for tear film break-up time: compared with the model group
Description: Positive control drug: Fluorometholone Eye Drops (specification: 5 mL/5 mg; Santen Pharmaceutical (CHINA) Co., Ltd.; Lot No.: 1FM6625) was used as the positive control drug and stored at room temperature protected from light until use.
Thirty male New Zealand White rabbits (conventional grade) were prepared. Six rabbits were randomly selected as the blank control group, and the remaining animals were administered 0.1% benzalkonium chloride to the left eye twice daily (morning and evening) , 10 µL/animal each time. On day 6 of modeling, tear secretion was measured using phenol red cotton threads to determine whether the model was successfully established. […] During the administration, all animals except the blank control group were administered 10 µL of 0.1% benzalkonium chloride to the left eye once daily to maintain dry eye symptoms..
• Test time: D3, D7, D15; • Test animals: All animals were tested before grouping; all enrolled surviving animals were tested after administration; • Test method: 1% Fluorescein sodium was dropped onto the inner side of the rabbit's lower eyelid, 10 µL/animal. The rabbit's eyes were closed and gently massaged to evenly distribute the fluorescein sodium on the eye surface. The rabbit's eyes were then sequentially placed under a slit lamp. The tear film break-up time was observed and recorded as the time from eye opening to the appearance of the first dark spot. If no dark spot appeared, the time was calculated as 60 seconds.
The normality and homogeneity of variance were tested by Levene's test. If there was no statistical significance (P > 0.05), one-way analysis of variance (ANOVA) was used for statistical analysis. If ANOVA was statistically significant (P ≤ 0.05), LSD test (parametric method) was used for comparative analysis. If the variance was heterogeneous (P ≤ 0.05), Kruskal-Wallis test was used. If the Kruskal-Wallis test was statistically significant (P ≤ 0.05), Dunnett's test (nonparametric method) was used for comparative analysis.

[9] = GR agonist EC50 (nM), HEK293 cells transfected with pBIND-GR, luciferase signal
[10] = Nuclear receptor enzyme activity (nM) GR, EC50 of agonist activity, HEK293 reporter cells
[11] = bronchoalveolar lavage fluid, 0.3 mg/mL, 50 µL intratracheally once daily for 3 days
[12] = D3, 1 mg/mL, 50 µL/eye, 3 times a day for 14 days
[13] = D7, 1 mg/mL, 50 µL/eye, 3 times a day for 14 days
[14] = D15, 1 mg/mL, 50 µL/eye, 3 times a day for 14 days

SMILES	Effects on inflammatory cytokines in bronchoalveolar lavage fluid of mice [1]	inflammatory response on the ocular surface / ocular symptoms [2]	level of IL-17 / inflammatory cytokines in psoriasis model mice [3]	inflammatory response on the intestinal surface / intestinal symptoms [4]	EC50 [5, 9]	EC50 [5, 10]	ocular abnormalities / ocular pathological score [6]	pharmacokinetic properties (plasma clearance rate, systemic exposure) [7]	tear film break-up time [8]	Macroscopic injury score [4]	Ocular pathological score [6]	other results
C[C@]12C=CC(=O)C=C1CC[C@H]1[C@@H]3C[C@H]4OC(c5ccc(COC6CCOC6=O)cc5)O[C@@]4(C(=O)CO)[C@@]3(C)C[C@H](O)[C@@]12Cl (stereo partly drawn) [Compound 22, (6aS,6bR,7S,8aS,8bS,11aR,12aS,12bS)-6b-Chloro-7-hydroxy-8b-(2-hydroxyacetyl)-6a,8a-dimethyl-10-(4-(((2-oxotetrahydrofuran-3-yl)oxy)methyl)phenyl)-1,2,6a,6b,7,8,8a,8b,11a,12,12a,12b-do decahydro-4H-naphtho[2',1':4,5]indeno[1,2-d][1,3]dioxol-4-one]	pharmacological effects similar to those of compound 23	significantly alleviated the ocular symptoms in dry eye syndrome model New Zealand rabbits	significantly inhibited inflammatory cytokines in the skin of psoriasis model mice	significantly alleviated the intestinal symptoms in inflammatory bowel disease model rats	0.55 nM	0.55 nM	significantly improved ocular abnormalities	pharmacokinetic properties similar to those of compound 8	significantly increased the tear film break-up time	–	–	–
C[C@]12C=CC(=O)C=C1CC[C@H]1[C@@H]3C[C@H]4OC(c5ccc(CSC6CCOC6=O)cc5)O[C@@]4(C(=O)CO)[C@@]3(C)C[C@H](O)[C@@]12Cl (stereo partly drawn) [Compound 23, (6aS,6bR,7S,8aS,8bS,11aR,12aS,12bS)-6b-Chloro-7-hydroxy-8b-(2-hydroxyacetyl)-6a,8a-dimethyl-10-(4-(((2-oxotetrahydrofuran-3-yl)thio)methyl)phenyl)-1,2,6a,6b,7,8,8a,8b,11a,12,12a,12b-do decahydro-4H-naphtho[2',1':4,5]indeno[1,2-d][1,3]dioxol-4-one]	extremely significantly decreased the levels of IL-6 and IL-12 in mice	significantly inhibited the inflammatory response on the ocular surface on day 15	significantly decreased the level of IL-17	significantly inhibited the inflammatory response on the intestinal surface	–	–	significantly improved the ocular abnormalities and reduced the ocular pathological score	pharmacokinetic properties similar to those of compound 8	significantly increased the tear film break-up time on day 15	4.83 ± 1.10"	7.0 ± 0.5	IL-6 [1, 11]: 11.1 ± 5.5 pg/mL; IL-12 [1, 11]: 7.0 ± 3.9 pg/mL; Corneal fluorescein sodium staining score D3 [2, 12]: 2.17 ± 0.98; Corneal fluorescein sodium staining score D7 [2, 13]: 1.0 ± 0.98; Corneal fluorescein sodium staining score D15 [2, 14]: 1.0 ± 0.63"; IL-17 ([3]; serum, day 8 of modeling, 0.2 g cream per mouse daily for 7 days): 19.56 ± 8.13 pg/mL; EC50 ([5]; EC50 of agonist activity, HEK293 reporter cells, read-out: Nuclear receptor enzyme activity (nM) GR): 0.21 nM; EC50 ([5]; HEK293 cells transfected with pBIND-GR, luciferase signal, read-out: GR agonist EC50): 0.21 nM; Tear film break-up time (s) D3 [8, 12]: 45.67 ± 13.69 s; Tear film break-up time (s) D7 [8, 13]: 49.33 ± 8.91" s; Tear film break-up time (s) D15 [8, 14]: 50.67 ± 10.41" s
C[C@]12C=CC(=O)C=C1CC[C@H]1[C@@H]3C[C@H]4OC(c5ccc(CSC6COC(=O)C6)cc5)O[C@@]4(C(=O)CO)[C@@]3(C)C[C@H](O)[C@@]12Cl (stereo partly drawn) [Compound 26, (6aS,6bR,7S,8aS,8bS,11aR,12aS,12bS)-6b-Chloro-7-hydroxy-8b-(2-hydroxyacetyl)-6a,8a-dimethyl-10-(4-(((5-oxotetrahydrofuran-3-yl)thio)methyl)phenyl)-1,2,6a,6b,7,8,8a,8b,11a,12,12a,12b-do decahydro-4H-naphtho[2',1':4,5]indeno[1,2-d][1,3]dioxol-4-one]	pharmacological effects similar to those of compound 23	significantly alleviated the ocular symptoms in dry eye syndrome model New Zealand rabbits	significantly inhibited inflammatory cytokines in the skin of psoriasis model mice	significantly alleviated the intestinal symptoms in inflammatory bowel disease model rats	0.37 nM	–	significantly improved the ocular abnormalities and reduced the ocular pathological score	pharmacokinetic properties similar to those of compound 8	significantly increased the tear film break-up time	–	7.6 ± 0.5	–
C[C@]12C=CC(=O)C=C1[C@@H](F)C[C@H]1[C@@H]3C[C@H]4OC(c5ccc(CSC6CCOC6=O)cc5)O[C@@]4(C(=O)SCF)[C@@]3(C)C[C@H](O)[C@@]12F (stereo partly drawn) [Compound 34, S-(Fluoromethyl) (2S,6aS,6bR,7S,8aS,8bS,11aR,12aS,12bS)-2,6b-difluoro-7-hydroxy-6a,8a-dimethyl-4-oxo-10-(4-( ((2-oxotetrahydrofuran-3-yl)thio)methyl)phenyl)-1,2,4,6a,6b,7,8,8a,11a,12,12a,12b-dodecahydro-8bH-naphtho[2',1':4,5]indeno[1,2-d][1,3]dioxole-8b-carbothioate]	pharmacological effects similar to those of compound 23	significantly alleviated the ocular symptoms in dry eye syndrome model New Zealand rabbits	significantly inhibited inflammatory cytokines in the skin of psoriasis model mice	significantly inhibited the inflammatory response on the intestinal surface	0.1 nM	0.1 nM	significantly improved ocular abnormalities	pharmacokinetic properties similar to those of compound 8	significantly increased the tear film break-up time	5.00 ± 0.95	–	–
